Reference: paper PMC6848086, “Light on the cell cycle of the non-photosynthetic bacterium Ramlibacter tataouinensis” (Scientific Reports, 2019)

Target: T1, RtBphP2 (Ramlibacter tataouinensis, UniProt F5Y6C4)
T1 construct: gene Rta_28950; full-length; His6 tag (pBAD/HisB); co-expressed with Bradyrhizobium sp; ORS278 heme oxygenase in E. coli TOP10; dimer
Assay: gel electrophoresis with zinc fluorescence; absorption spectra of purified holoprotein
Format: binding
Details: covalent; chromophore formed in E. coli by co-expressed heme oxygenase

T1 sequence (F5Y6C4 entry or part of it): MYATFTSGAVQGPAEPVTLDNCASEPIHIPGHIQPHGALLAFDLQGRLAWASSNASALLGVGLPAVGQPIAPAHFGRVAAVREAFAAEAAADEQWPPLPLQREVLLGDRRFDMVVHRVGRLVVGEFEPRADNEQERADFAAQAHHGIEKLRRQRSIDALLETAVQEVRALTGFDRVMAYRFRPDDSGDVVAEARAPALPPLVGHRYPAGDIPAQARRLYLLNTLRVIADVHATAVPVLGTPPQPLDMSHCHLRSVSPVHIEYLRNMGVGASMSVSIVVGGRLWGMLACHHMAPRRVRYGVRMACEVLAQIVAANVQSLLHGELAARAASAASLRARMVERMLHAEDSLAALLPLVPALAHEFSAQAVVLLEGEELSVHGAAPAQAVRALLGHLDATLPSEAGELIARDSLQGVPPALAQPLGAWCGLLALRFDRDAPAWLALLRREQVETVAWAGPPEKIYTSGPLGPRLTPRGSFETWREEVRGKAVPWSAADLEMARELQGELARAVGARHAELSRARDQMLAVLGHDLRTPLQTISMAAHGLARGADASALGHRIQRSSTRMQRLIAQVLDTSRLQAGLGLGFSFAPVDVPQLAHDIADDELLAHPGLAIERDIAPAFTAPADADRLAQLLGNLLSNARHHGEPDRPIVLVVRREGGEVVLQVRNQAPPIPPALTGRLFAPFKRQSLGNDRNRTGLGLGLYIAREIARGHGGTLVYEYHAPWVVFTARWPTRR

C=CC1=C(C)/C(=C/C2=NC(=C\c3[nH]c(/C=C4\NC(=O)C(C)=C4C=C)c(C)c3CCC(=O)O)/C(CCC(=O)O)=C2C)NC1=O [biliverdin]
gel electrophoresis with zinc fluorescence; absorption spectra of purified holop: zinc fluorescence demonstrated that the biliverdin (BV) is covalently bound in both proteins
